Reference: patent publication US9359311B2, “Substituted aromatic oligomers” (NEUROSCIOS GMBH, priority 2011, dated 2016)

How the values were obtained:
[1] = system: PHF-tau doubly-phosphorylated at Thr231 and Ser235; test: Phosphorylation of Tau in neurites crossing amyloid plaques, AT180 IHC, hAPPSL Tg mice; assay type: in vivo, mouse
Method: Vehicle: Phosphate Buffered Saline (PBS; 6.7 mM PO4, 155 mM NaCl, pH=7.3-7.5) (BioWhittaker PBS from Lonza).
Test Item (T.I.): p-FTAA and P9707_003, diluted in vehicle from stock solution in deionized water (10 mg/ml).
Tg hAPPSL: Transgenic hAPPSL mice over-expressing hAPP(751) under the control of the murine Thy-1 promoter with a C57BL/6xDBA background.
48 hAPP Tg mice plus 4 reserves allocated to 4 different treatment groups were treated with either vehicle only (control), p-FTAA or P9707_003. As an additional control, 12 nTg littermates of the hAPPSL mice (plus 1 reserve) were treated with vehicle only. Starting at 6.5 months of age, female hAPPSL mice were treated with vehicle only, p-FTAA (dosage: 1 or 10 mg/kg/day) or P9707_003 (dosage: 10 mg/kg/day) for 90 days. The Test Items (T.I.s) were administered in Vehicle. Compound and vehicle were administered twice daily i.p. for 90 days. Tg hAPPSL mice with a C57BL/6xDBA background and corresponding nTg littermates at an age of 6.5 months (+2 weeks) were randomly assigned to the treatment groups.
Histological evaluations were performed with six randomly chosen cryo-frozen brain hemispheres of treatment groups PBS Control, p-FTAA 1 mg/kg/day, p-FTAA 10 mg/kg/day, and P9707_003 10 mg/kg/day.
15 cryo-sections per level (altogether 5 levels), each 10 μm thick (Leica CM 3050S) were sagittally cut. Brain levels were chosen according to the morphology atlas “The Mouse Brain” from Paxinos and Franklin (2nd edition). The cutting of the five levels started with a random slice, then sampling was continued uniformly and systematically, always retaining 15 slices per level in series and discarding 100 μm in between the levels.
TAU phosphorylation was visualized immunohistochemically using the AT180 antibody. Clone AT180 recognizes PHF-tau doubly-phosphorylated at Thr231 and Ser235.
For determination of amyloid depositions 5 slices (1 from each level) per brain were stained and screened. From each slice five images were captured from 5 defined areas in the brain. The order of these positions reflect the time course of plaque deposition in the APPsl model, which starts in the frontal cortex (P11) at the age of 3 months and then spreads to the medial (P12) and dorsal cortex over age. At six months of age, plaques can be found in the medial cortex (P13), from then plaque load spreads into the hippocampal formation with hot spots in the subiculum (P14) and the dentate gyrus (P15) at the age of nine months.
Mosaic images for plaque load quantification including the whole cortex and hippocampus were recorded on a Zeiss AxioImager.Z1 microscope using high aperture lenses and an AxioVision 4.8 software driven AxioCam MRm (10× lens, 1× optocoupler). Plaques for AT180 quantifcation were imaged with a 20× lens. Detail images for qualitative figures are 40× image stacks collapsed to 2D by the extended depth of field function of AxioVision software.
Descriptive statistical analysis was performed on all evaluated parameters, Kolmogorov Smirnov test were performed to test normal distribution of data. Data in graphs are represented as mean±SEM.

biotinylated Aβ1-42 = molecular target: T1, biotinylated Aβ1-42 (Homo sapiens, UniProt P05067); test: Inhibition of Abeta oligomerisation (biotinylated Aβ1-42, neutravidin plate, streptavidin-HRP); assay type: biochemical; details: inhibition of Aβ1-42 aggregation, approximately 12 nM Aβ1-42, PBS pH 7.4, 2% DMSO, 30 min RT
T1 construct: To assure monomerisation of biotinylated Aβ1-42 (Anaspec #23523-0.5) the peptide was thoroughly monomerised; purchased Anaspec 23523-0.5
T1 sequence (P05067 672-713 limits assumed): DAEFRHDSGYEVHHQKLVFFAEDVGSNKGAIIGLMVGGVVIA

primary chicken neurons = test: Inhibition of Abeta 1-42 toxicity on primary chicken neurons (MTT); assay type: cell-based; design: key: No: no effect; +: minor positive effect on cell viability in the presence of aggregated Aβ 1-42; ++: medium positive effect on cell viability in the presence of aggregated Aβ 1-42; +++: strong positive effect on cell viability in the presence of aggregated Aβ 1-42; details: 10 μM Aβ1-42 aggregated together with compound for 48 h
Method: One-day-old fertilized eggs are stored under appropriate conditions until start of breeding. On embryonic day 0 eggs are transferred to the breeding incubator and under turning, kept at 37.8° C. and 55% humidity until embryonic day eight. Neurons are prepared as follows: In short, embryos are transferred to a plastic dish, and decapitated. Both brain hemispheres are removed, collected and any loose tissue removed. Hemispheres are mechanically dissociated and 4.8×10^4 cells per well (96-well plates) are seeded in a volume of 160 μl.
Aβ1-42 (MW 4514.1) was obtained from American Peptide Company as a lyophilized powder. A stock solution of 340 μM Aβ1-42 was prepared in 50 mM Tris-Buffer, 150 mM NaCl, pH7.6 according to the manufacturer's instructions. After sonication, the stock solution is diluted 1:1 with the test compounds to obtain a concentration of 170, 17 and 1.7 μM. After aggregation at 4° C. for 48 h, the solutions are sonicated again prior to application to the cells. The final concentration of Aβ1-42 applied to the primary chicken neurons is 10 μM.
Aβ1-42 aggregated together with compound for 48 hrs was applied to chicken neurons at DIV4 (days in vitro) and analyzed at DIV10 (144 hrs) and all others were applied to chicken neurons at DIV6 and analysed at DIV10 (96 hrs).
Viability of cultures is determined by the MTT assay. The MTT assay allows for the measurement of the mitochondrial dehydrogenase activity which reduces yellow MTT to dark blue formazan crystals. Since this reaction is catalyzed in living cells only this assay is used for the determination of cell viability. MTT solution is added to each well in a final concentration of 0.5 mg/ml. After 2 hours the MTT containing medium is aspired. Cells are lysed in 3% SDS and the formazan crystals are dissolved in isopropanol/HCl. Optical density is measured with a plate-reader at wavelength 570 nm. Cell survival rate is expressed as a percentage of optical density (OD) relative to control cells not treated with Aβ or compound.

IC50 (biotinylated Aβ1-42): 794 nM
Structure (SMILES): O=C(O)Cc1ccsc1-c1ccc(-c2sc(-c3ccc(-c4cc(CC(=O)O)c(-c5ccc(-c6sccc6CC(=O)O)s5)s4)s3)cc2CC(=O)O)s1 [Example 1, 2-(2-{5-[3-(Carboxymethyl)-5-{5-[4-(carboxymethyl)-5-{5-[3-(carboxymethyl)thiophen-2-yl]thiophen-2-yl}thiophen-2-yl]thiophen-2-yl}thiophen-2-yl]thiophen-2-yl}thiophen-3-yl)acetic acid]
AT180 load ([1]; 10 mg P9707_003 treatment, plaque sides 2 and 4): significant reduction
AT180 IR in plaques of younger history of origin (hippocampal formation, subiculum, dentate gyrus) ([1]; 90 days i.p., hAPPSL Tg mice): drastically reduced
AT180 load at hippocampal plaques, reduced to ([1]; P9707_003 10 mg/kg/day, 90 days i.p.): approximately 45%
reduction of AT180 ([1]; P9707_003 10 mg/kg/day, 90 days i.p., positions 4 and 5): more than 40%
Rescue of Abeta toxicity (MTT) (primary chicken neurons; Conc. 0.1 μM): no
Rescue of Abeta toxicity (MTT) (primary chicken neurons; Conc. 1 μM): +++
Rescue of Abeta toxicity (MTT) (primary chicken neurons; Conc. 10 μM): +++
